# Data reported in US4819645A, “Dermal substance collection method” (priority 1987, dated 1989).
# Like-named read-outs stand apart in the source and are kept apart here.
# What was measured:
# [1] = format: in vivo, Rhesus monkey; settings: 14C-parathion intravenously; activated charcoal gel DSCD, skin pre-treated with Azone
# Text: Extensive In vivo testing of the dermal substance collection device (DSCD) has been undertaken in rabbits (R, Rhesus monkeys (M) and humans (H). […]. Experimental conditions were varied in order to evaluate various binding reservoirs including activated charcoal dispersed in a saline/gel matrix, various DSCD embodiments which provide a liquid bridge including saline, immobilized by various gels such as agarose or polyvinyl alcohol as the gelling agent, various DSCD embodiments which provide persistent occlusive contact of the liquid bridge with the skin (single layer adhesive tape overlying the DSCD liquid bridge/binding reservoir complex vs multiple tape/foil layers enveloping a liquid bridge/binding reservoir complex vs multiple tape/foil layers enveloping a liquid bridge/binding reservoir complex which protrudes into the skin effecting positive pressure during emplacement), various preparatory procedures (shaving, clipping of hair, use of a chemical depilitant, cleansing of the skin with soap and isopropyl alcohol), and various skin penetration enhancing agents (Azone, DET, DMSO).
# In a typical animal experiment, a Rhesus monkey is anesthetized with ketamine 10 mg/kg and the hair on the chest and abdomen is clipped prior to washing the underlying skin (with a mild soap or isopropyl alcohol). […]
# [2] = Rhesus monkeys, maximum percentage of administered dose collected, liquid bridge diameter 9 mm
# [3] = Collection of cimetidine by DSCDs in a healthy volunteer; settings: 5 mg/kg orally or intravenously, 24 hours, 25 mm liquid bridge, agarose gel with activated charcoal
# [4] = Collection of THC by DSCDs after oral THC, RIA after toluene/ethanol extraction; settings: cancer patient, oral 10 mg THC, up to 48 hours, lower legs, 1 cm gel
# [5] = parent compound and metabolites
compound,measurement,setting,value
CCOP(=S)(OCC)Oc1ccc([N+](=O)[O-])cc1 [14C-parathion],transdermal collection (in words),[1],particularly satisfactory transdermal collection
"CN/C(=N/CCSCc1nc[nH]c1C)NC#N [CIMETIDINE, cimetidine]",EXTENT OF TRANSDERMAL MIGRATION,[2]; parent compound only,8.3 % Dose × 10^4
same,amount of cimetidine collected from DSCDs,[3],62 to 461 ng
"CN1CCCC1c1cccnc1 (stereo not shown) [NICOTINE, nicotine]",EXTENT OF TRANSDERMAL MIGRATION,[2]; [5],2.5 % Dose × 10^4
"CCOP(=S)(OCC)Oc1ccc([N+](=O)[O-])cc1 [PARATHION, parathion]",EXTENT OF TRANSDERMAL MIGRATION,[2]; [5],0.7 % Dose × 10^4
CCCCCc1cc(O)c2c(c1)OC(C)(C)[C@@H]1CCC(C)=C[C@@H]21 [TETRAHYDROCANNABINOL],EXTENT OF TRANSDERMAL MIGRATION,[2]; parent compound only,0.1 % Dose × 10^4
same,amount of THC collected from DSCDs,[4]; agarose gel without activated charcoal,224 ± 22 pg
same,amount of THC collected from DSCDs,[4]; gel with activated charcoal,601 ± 302 pg
"Cn1c(=O)c2[nH]cnc2n(C)c1=O [THEOPHYLLINE, theophylline]",EXTENT OF TRANSDERMAL MIGRATION,[2]; [5],25 % Dose × 10^4
inulin,EXTENT OF TRANSDERMAL MIGRATION,[2]; [5],0.5 % Dose × 10^4
